Measurements published in US20250084112A1, “Chemical Compounds Useful for Inhibiting Nav1.8 Voltage-Gated Sodium Channels and Treating Nav1.8 Mediated Diseases” (GlaxoSmithKline Intellectual Property Development Limited, priority 2021, published 2025).
Converted amounts (≈) assume the structure as drawn. Like-named read-outs stand apart in the source and are kept apart here.

Experiments:
human Nav1.8 = human Nav1.8 (Homo sapiens (Human), UniProt Q9Y5Y9); test: QPatch 48 HTX electrophysiology, half inactivation state (V1/2) voltage protocol in HEK293-Nav1.8; format: cell-based; details: HEK293-Nav1.8, QPatch V1/2 protocol, P2 current; average if more than one run
Description: Human embryonic kidney 293 cells (HEK293) expressing human Nav1.8, human Navβ1 and human TREK1 (HEK293-Nav1.8) were grown at 37° C., 5% CO2 in 150 cm^2 flasks. HEK293-Nav1.8 were passaged every 2-3 days into T175 cell culture flasks when confluency reached 80-90%.
Pharmacological assessment of the compounds of the invention was performed using HEK293-Nav1.8 in combination with an assay developed on the QPatch 48 HTX electrophysiological system. HEK293-Nav1.8 were prepared on the day of use by removing culture media, washing in DPBS, adding Accutase (2 ml to cover the surface, aspirate 1 ml then 1.5 min at 37° C.) followed by addition of CHO-SFM II to stop the enzyme digestion and in order to obtain a suspension of 3×10^6 cell/mL.
Compound was prepared in an extracellular solution of the following composition: NaCl (145 mM), KCl (4 mM), CaCl2 (2 mM), MgCl2 (2 mM), HEPES (1 mM), Glucose (10 mM), pH 7.4 with NaOH Osmolality 300 mOsM/L. The intracellular solution was used of the following composition: CsF (115 mM), CsCl (20 mM), NaCl (5 mM), EGTA (10 mM), HEPES (10 mM), Sucrose (20 mM), pH 7.2 with CsOH Osmolality 310 mOsm/L.
Utilizing the voltage-clamp mode in the QPatch 48 HTX system a half inactivation state voltage protocol (V1/2) was used to determine pharmacological activity of compounds of the invention at Nav1.8 ion channels. A V1/2 protocol was utilized with the following voltage steps: a holding voltage of −100 mV was established followed by a 20 ms voltage step to 0 mV (P1), followed by an inactivating voltage step at −46 mV for 8 seconds, followed by a step to −100 mV for 20 ms, before a 20 ms step to 0 mV (P2) before returning to the holding voltage of −100 mV. This voltage protocol was repeated at a frequency of 0.07 Hz., current magnitude was quantified at the P2 step throughout the recording. Inhibition of the measured current amplitude with the compounds of the invention was analyzed by fitting a 6-8 point dose-response curve allowing determination of the fifty percent inhibition concentration (IC50). Within the QPatch HTX software, P2 current was normalized according to measurements made at baseline after compound and after positive reference compound and fit to the following equation: […]
To assess current run-down over the course of the experiment vehicle-only wells were utilized and the normalized current with vehicle-only (n.IVEH) was determined. To correct the compound response for run-down, the currents were corrected according the following formula: […]
Compounds of the invention and the corresponding parent compounds (see Table 1A for structures) were tested for activity against Nav1.8 sodium channels in the above assay in one or more experimental runs and the results are shown in Table 1 below. Potency of the compounds of the invention is reported as a pIC50 value. The pIC50 value is the negative log of the IC50 value, wherein the IC50 value is the half maximal inhibitory concentration measured in molar (M). Potency of the compounds of the invention is compared to the potency of the parent compound. For compounds tested in more than one experimental run, the pIC50 value is reported as an average.

[1] = Kinetic solubility measurement using Charged Aerosol Detector (CAD); format: physicochemical; details: phosphate buffered saline (PBS) pH 7.4, aqueous buffer, PBS pH 7.4, 1 hour at room temperature, from DMSO stock
Description: Kinetic solubility measurement using Charged Aerosol Detector (CAD). The aqueous kinetic solubility at pH 7.4 was determined by measuring the concentration of solute in solution after precipitation from DMSO stock solution. The DMSO stock solution was diluted 20-fold with phosphate buffered saline (PBS) pH 7.4 and the solubility of the compound was measured after 1 hour equilibration at room temperature by HPLC-CAD. Calibration standards of Ketoconazole and Primidone were prepared by serial dilutions in DMSO at concentrations ranging from 0.016 to 4.5 mg/ml to produce the calibration curve used to determine the solubility of the compounds as previously described in Max W. Robinson et al, Use of Calculated Physicochemical Properties to Enhance Quantitative Response When Using Charged Aerosol Detection, Anal. Chem., 2017, 89 (3), pp 1772-1777, which is herein incorporated by reference.

[2] = Rat IV/PO pharmacokinetic study (prodrug to parent conversion); format: in vivo, Han Wistar rats
Description: An in vivo rat pharmacokinetic study was conducted to determine whether the prodrug compounds of the invention are converted to the respective parent compound upon administration. The rat pharmacokinetic study was conducted with a crossover design on two study days with a one-day recovery period between each study day. Three male, dual catheterized (femoral vein and carotid artery) Han Wistar rats were used for the study. Each rat was also implanted with a gastric catheter for oral dose administration. Rats were dosed at 1 mg/kg by a 60 minute intravenous (IV) infusion (femoral vein cannula), then subsequently oral dosed at 2 mg/kg via the gastric cannula, with 48 hours between dosing sessions. Dose solutions of the compound of Example 3 were prepared in 20% Cavitron/5% DMSO/75% water (IV) and in 6% Cavitron/5% DMSO/89% water (PO) without pH adjustment. The dose solutions were filtered using a 0.22 μ filter. The pH of the final dosing solutions was 6.0.
During the intravenous study leg, blood samples were collected from the carotid artery catheter at target times of 15, 30, 60 (end of infusion), 65, 75, 90, 120, 240, 360, 480, 720, and 1440 minutes following the initiation of the intravenous infusion of the compound of Example 3. During the oral study leg, blood samples were collected prior to dosing and at target times of 15, 30, 60, 90, 120, 180, 240, 360, 480, 720, and 1440 minutes following oral administration. Blood samples, 100 μL, were mixed with 100 μL phosphatase inhibitor, a 50 μL aliquot of the blood and inhibitor mixture was transferred to a non-heparinized tube and stored at approximately −80° C. until analyzed. The concentrations in the filtered dose solutions were confirmed by preparing stepwise dilutions first into 50% aqueous acetonitrile with 0.1% formic acid then into heparinized male Wistar Han blood:inhibitor to achieve determined nominal concentrations. Triplicate 50 μL aliquots were removed and were frozen and stored at approximately […] until analyzed by LC-MS/MS as described below.
LC-MS/MS was used to quantify the compound of Example 3 and the corresponding parent compound of Example 3A in the biological samples generated in the above described in vivo study. Samples were prepared by protein precipitation followed by LC-MS/MS analysis employing positive-mode ionization against a set of calibration standards for the compounds prepared in the same matrix. Pharmacokinetic parameters for the study was derived from the concentration versus time profiles. Key pharmacokinetic parameters such as AUC0-∞ (extrapolated area under the blood concentration-time curve), AUC0-t (area under the blood concentration-time curve to the last time point with quantifiable drug), Cmax (maximum concentration), Tmax (time Cmax is achieved), CL (systemic blood clearance), Vdss (steady-state volume of distribution), MRT (mean residence time), and t1/2(half-life) were determined for the compound of Example 3. The key pharmacokinetic parameters such as AUC0-∞, AUC0-t, Cmax, Tmax, MRT, and t1/2 (half-life) were determined for the parent compound Example 3A. Descriptive statistical data of pharmacokinetic parameters were calculated, including the mean and standard deviation (SD) using Microsoft Excel.
The data are shown below in Tables 3A and 3B. Data are reported as mean±SD (N=3).

[3] = average for Examples 1 and 3, one run for 2 and 4, read-out: CAD solubility (Prodrug Compounds of the Invention)
[4] = average of multiple runs, read-out: CAD solubility (Parent Compounds)
[5] = male, Han Wistar, whole blood, prodrug in blood, Example 3 1 mg/kg 60 minute intravenous infusion, mean±SD (N=3)

Sequence of human Nav1.8 (Q9Y5Y9 whole entry): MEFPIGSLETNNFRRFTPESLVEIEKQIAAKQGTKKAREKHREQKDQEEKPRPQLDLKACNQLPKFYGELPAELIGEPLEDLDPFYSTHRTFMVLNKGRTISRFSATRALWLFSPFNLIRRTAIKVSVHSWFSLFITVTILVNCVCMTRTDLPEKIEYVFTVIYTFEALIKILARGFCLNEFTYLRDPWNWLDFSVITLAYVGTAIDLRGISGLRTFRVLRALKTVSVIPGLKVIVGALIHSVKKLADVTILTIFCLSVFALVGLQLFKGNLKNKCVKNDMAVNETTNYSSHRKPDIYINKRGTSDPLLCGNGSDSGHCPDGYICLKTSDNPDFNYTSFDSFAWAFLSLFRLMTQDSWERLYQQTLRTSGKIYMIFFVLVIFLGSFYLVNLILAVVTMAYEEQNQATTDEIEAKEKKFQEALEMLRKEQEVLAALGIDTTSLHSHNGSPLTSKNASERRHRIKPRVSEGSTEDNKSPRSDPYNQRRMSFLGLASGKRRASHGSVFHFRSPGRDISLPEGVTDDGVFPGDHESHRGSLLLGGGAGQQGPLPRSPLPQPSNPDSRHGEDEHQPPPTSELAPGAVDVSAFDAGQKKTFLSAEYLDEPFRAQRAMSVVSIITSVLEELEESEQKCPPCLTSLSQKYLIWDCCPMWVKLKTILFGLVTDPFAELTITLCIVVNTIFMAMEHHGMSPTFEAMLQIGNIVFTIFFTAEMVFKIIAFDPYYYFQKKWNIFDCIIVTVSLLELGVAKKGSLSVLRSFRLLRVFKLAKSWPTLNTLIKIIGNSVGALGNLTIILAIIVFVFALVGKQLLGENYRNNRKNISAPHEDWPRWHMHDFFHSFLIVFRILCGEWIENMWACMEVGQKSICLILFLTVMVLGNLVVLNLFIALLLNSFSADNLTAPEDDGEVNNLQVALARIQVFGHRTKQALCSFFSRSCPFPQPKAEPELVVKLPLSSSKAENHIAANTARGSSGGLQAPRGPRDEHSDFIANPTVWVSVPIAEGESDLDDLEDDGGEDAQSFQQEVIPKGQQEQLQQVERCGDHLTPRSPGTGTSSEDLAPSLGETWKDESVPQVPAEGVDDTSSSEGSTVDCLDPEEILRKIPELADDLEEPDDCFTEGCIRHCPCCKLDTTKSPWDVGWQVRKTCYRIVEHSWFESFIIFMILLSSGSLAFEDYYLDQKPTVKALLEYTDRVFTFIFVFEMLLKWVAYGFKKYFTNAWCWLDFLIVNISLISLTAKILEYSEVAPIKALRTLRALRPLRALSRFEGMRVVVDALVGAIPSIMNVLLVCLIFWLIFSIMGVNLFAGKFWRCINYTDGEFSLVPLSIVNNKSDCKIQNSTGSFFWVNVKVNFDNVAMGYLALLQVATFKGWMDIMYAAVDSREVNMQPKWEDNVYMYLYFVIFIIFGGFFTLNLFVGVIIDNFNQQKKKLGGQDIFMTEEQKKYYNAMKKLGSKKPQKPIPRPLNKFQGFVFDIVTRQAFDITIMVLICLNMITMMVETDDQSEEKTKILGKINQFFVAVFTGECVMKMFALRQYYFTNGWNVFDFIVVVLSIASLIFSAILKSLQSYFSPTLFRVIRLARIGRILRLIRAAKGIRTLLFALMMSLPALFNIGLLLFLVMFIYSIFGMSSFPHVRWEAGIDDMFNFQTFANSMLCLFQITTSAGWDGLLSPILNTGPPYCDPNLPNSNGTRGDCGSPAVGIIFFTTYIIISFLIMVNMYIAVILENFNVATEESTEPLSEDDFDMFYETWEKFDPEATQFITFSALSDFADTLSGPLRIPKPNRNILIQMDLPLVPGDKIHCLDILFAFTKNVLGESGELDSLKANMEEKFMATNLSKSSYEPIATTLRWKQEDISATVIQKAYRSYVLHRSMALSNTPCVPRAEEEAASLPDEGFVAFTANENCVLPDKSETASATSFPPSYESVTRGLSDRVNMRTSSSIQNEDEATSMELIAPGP

Row | Compound | [Nav1.8] pIC50 (Compounds of the Invention) (human Nav1.8) | solubility at 1 h [1, 3] [µg/mL] | solubility at 1 h [1, 4] [µg/mL] | other results
1 | Cc1cc(F)ccc1N1CN(c2ccc(=O)n(COP(=O)(O)O)c2C)C(=O)c2ccc(C(F)(F)F)cc21 [Example 2, (5-(1-(4-fluoro-2-methylphenyl)-4-oxo-7-(trifluoromethyl)-1,4-dihydroquinazolin-3(2H)-yl)-6-methyl-2-oxopyridin-1(2H)-yl)methyl dihydrogen phosphate] | 6.6 | > 193 |  | 
2 | Cc1cc(F)ccc1N1CN(c2ccc(=O)[nH]c2C)C(=O)c2cc(Cl)ccc21 [Parent Compound 3A, 6-chloro-1-(4-fluoro-2-methylphenyl)-3-(2-methyl-6-oxo-1,6-dihydropyridin-3-yl)-2,3-dihydroquinazolin-4(1H)-one] |  |  | 54 (≈ 136 µM) | 
3 | Cc1cc(F)ccc1N1CN(c2ccc(=O)[nH]c2C)C(=O)c2cc(C(F)(F)F)ccc21 [Parent Compound 1A, 1-(4-fluoro-2-methylphenyl)-3-(2-methyl-6-oxo-1,6-dihydropyridin-3-yl)-6-(trifluoromethyl)-2,3-dihydroquinazolin-4(1H)-one] |  |  | 48 (≈ 111 µM) | [Nav1.8] pIC50 (Parent Compounds) (human Nav1.8): 8
4 | Cc1cc(F)ccc1N1CN(c2ccc(=O)n(COP(=O)(O)O)c2C)C(=O)c2cc(Cl)ccc21 [Example 3, (5-(6-chloro-1-(4-fluoro-2-methylphenyl)-4-oxo-1,4-dihydroquinazolin-3(2H)-yl)-6-methyl-2-oxopyridin-1(2H)-yl)methyl dihydrogen phosphate] | 6.9 | 102 |  | AUC(0-inf) [2, 5]: 250 ± 30 ng·h/mL; AUC(0-t) [2, 5]: 240 ± 40 ng·h/mL; Cmax [2, 5]: 260 ± 24 ng/mL; clearance ([2]; male, Han Wistar, whole blood, prodrug, systemic blood clearance, Example 3 1 mg/kg 60 minute intravenous infusion, mean±SD (N=3)): 58 ± 9 mL/min/kg; quantifiable concentrations following oral administration ([2]; prodrug in blood, Example 3 2 mg/kg oral via gastric cannula, text runs over cells r6-r10): There were no
5 | Cc1cc(F)ccc1N1CN(c2ccc(=O)n(COP(=O)(O)O)c2C)C(=O)c2cc(C(F)(F)F)ccc21 [Example 1, (5-(1-(4-Fluoro-2-methylphenyl)-4-oxo-6-(trifluoromethyl)-1,4-dihydroquinazolin-3(2H)-yl)-6-methyl-2-oxopyridin-1(2H)-yl)methyl dihydrogen phosphate] | 6.8 | > 260 |  | 
6 | Cc1cc(OC(F)(F)F)ccc1N1CN(c2ccc(=O)n(COP(=O)(O)O)c2C)C(=O)c2cc(C(F)(F)F)cnc21 [Example 4, (6-methyl-5-(1-(2-methyl-4-(trifluoromethoxy)phenyl)-4-oxo-6-(trifluoromethyl)-1,4-dihydropyrido[2,3-d]pyrimidin-3(2H)-yl)-2-oxopyridin-1(2H)-yl)methyl dihydrogen phosphate] | 6.1 | 181 |  | 
7 | Cc1cc(OC(F)(F)F)ccc1N1CN(c2ccc(=O)[nH]c2C)C(=O)c2cc(C(F)(F)F)cnc21 [Parent Compound 4A, 1-(2-methyl-4-(trifluoromethoxy)phenyl)-3-(2-methyl-6-oxo-1,6-dihydropyridin-3-yl)-6-(trifluoromethyl)-2,3-dihydropyrido[2,3-d]pyrimidin-4(1H)-one] |  |  | 87 (≈ 175 µM) | [Nav1.8] pIC50 (Parent Compounds) (human Nav1.8): 7.5
8 | Cc1cc(F)ccc1N1CN(c2ccc(=O)[nH]c2C)C(=O)c2ccc(C(F)(F)F)cc21 [Parent Compound 2A, 1-(4-fluoro-2-methylphenyl)-3-(2-methyl-6-oxo-1,6-dihydropyridin-3-yl)-7-(trifluoromethyl)-2,3-dihydroquinazolin-4(1H)-one] |  |  | 51 (≈ 118 µM) | 
